Read-outs that look alike come from different tables or passages of the source. Blank lines part the entries; values can stand above or below the substance they belong to.
Key:
FLAG-USP33 = assay: IP-MS of FLAG-USP33 and variants vs empty vector; format: cell-based, human; settings: IP-MS
Protocol: For transfection, 1x10^6 HEK293 cells were seeded in 10 cm dishes with DMEM, 10% FBS, 1% L-G (without antibiotic) medium, incubated at 37 °C, with 5 % CO2 for 24 h. Cells were transfected with a transfection mix containing […] of Opti-MEM (Thermo Fisher Scientific), 20 μL of PEI stock (1 mg/mL) and […] of the desired cDNA. For co-transfection, 2.5 μg of DNA of each plasmid was used. The mix was vortexed for 15 s and incubated at room temperature for 15–20 min. The transfection mix was added to the dish and gently mixed. Plates were incubated at 37 °C for 36–48 h before harvesting. For USP33 constructs, 5 μM Bortezomib (proteasome inhibitor) was added 4 hours before harvesting the cells.
FLAG fusion proteins were immunoprecipitated from HEK293 cells transfected with plasmids encoding the protein of interest using the anti-FLAG M2 affinity gel from Sigma-Aldrich. Cell pellets were lysed with 100–200 μL/per dish lysis buffer (Pierce RIPA buffer, 1X protease inhibitor (Roche), 50 unit/μL of Benzonase Nuclease) rotating at 4 °C for 30–45 min. […] The cell lysate was clarified by centrifugation at 17,000 x g, at 4 °C for 12 min, and the supernatant was transferred to a clean, pre-chilled low-binding Eppendorf tube. […] The IP samples were centrifuged at 6500 x g at 4 °C for 30 s. The supernatant containing the unbound proteins was transferred to a clean tube. The resin was washed three times with 500 μL of TBS, centrifuged at 6500 x g at 4 °C for 30 s. The bound FLAG fusion protein was eluted with 100 μL of 150 ng/μL 3X FLAG peptide (Sigma) in TBS and incubated in the cold room for 1 h or overnight. The tube was centrifuged at 6500 x g at 4 °C for 30 s; the eluted proteins were transferred to a clean tube. The eluted proteins were prepared for analysis by western blot or Mass Spectrometry.
Immunoprecipitation (IP) was carried out as described above; four technical replicates of each IP condition were performed, and the empty vector was used as a negative control. The eluted protein was processed following the Strap-micro protocol (Protifi). The IP elution containing 1–100 μg protein was 1:1 mixed with 2X lysis buffer (10% SDS, 100 mM TEAB pH 8.5). […] Samples were vortexed, mixed with 165 μL of 100 mM TEAB in 90% methanol, and passed through an S-Trap micro column at 4000 g for 30 s to trap the proteins. The column was washed with 150 μL of 100 mM TEAB in 90% methanol (at 4,000 x g for 30 seconds) three times. The S-Trap column was centrifuged again and transferred to a clean 2 mL tube for digestion with 20 μL of digestion buffer (1 μg trypsin per 10 μg sample in 50 mM TEAB), at 37 °C overnight in a thermomixer without shaking. The digested peptides were eluted with […] of 50 mM TEAB in water, […] of 0.2 % formic acid in water, and […] of 50 % acetonitrile in water, centrifuging at 4000 x g for 1 min each time. The three elutions were pooled in a low-binding tube, placed on dry ice until frozen, dried in a SpeedVac vacuum (Thermo Scientific), and proceeded with the LCMS analysis.
Eluted peptides were resuspended in water supplemented with 0.015% dodecyl maltoside and 0.1% formic acid and were injected on a Vanquish Neo UHPLC System operating in trap and elute mode coupled to an Orbitrap Astral Mass Spectrometer (Thermo Fisher Scientific). […] Eluted peptides were analyzed using data-independent acquisition mode on the mass spectrometer.
Peptides were searched against the Uniprot Swissprot Human database (released on 02/01/2023) supplemented with the USP20 and USP33 mutants using DiaNN (v1.9.0)[62] operating in library-free mode. Data filtering and statistical analysis were carried out in Python (v3.9.0) using the packages pandas, numpy, sklearn, scipy, rpy2, Plotnine, and Plotly and R (v4.4.3) using the package limma.
Protein groups identified with a single peptide or quantified in fewer than three replicates in at least 1 condition were filtered out. […]

USP20 zf-UBP domain = molecular target: T1, USP20 zf-UBP domain (Homo sapiens, UniProt Q9Y2K6); assay: FP-monitored affinity measurements, USP20 zf-UBP; format: binding; settings: USP20_UBP; FP displacement by unlabelled peptide; read-out: KD
T1 construct: USP20_UBP; Q9Y2K6; zf-UBP; 99; 6xHis-GST (N, cleaved yes); made in house; host or cells: Escherichia coli BL21-Gold (DE3)
T1 sequence (Q9Y2K6 4-99): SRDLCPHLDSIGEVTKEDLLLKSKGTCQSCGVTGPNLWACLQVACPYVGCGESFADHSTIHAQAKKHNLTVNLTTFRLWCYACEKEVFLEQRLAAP
Protocol: The measurements were performed at room temperature in a non-binding black half area 96-well plate (Corning) with a total volume of 50 μL per well. […] All measurements were performed in three technical replicates. […] The saturation curves were fitted to the quadratic equation, and the displacement curves were fitted to a sigmoidal dose-response equation as described previously[68].

USP33 zf-UBP domain = molecular target: T2, USP33 zf-UBP domain (Homo sapiens, UniProt Q8TEY7); assay: FP-monitored affinity measurements, USP33 zf-UBP; format: binding; settings: USP33_UBP; FP displacement by unlabelled peptide; read-out: KD
T2 construct: USP33_UBP; Q8TEY7; zf-UBP; 36; 130; 6xHis-GST (N, cleaved yes); made in house; host or cells: Escherichia coli BL21-Gold (DE3)
T2 sequence (Q8TEY7 with tags, fused parts or gaps): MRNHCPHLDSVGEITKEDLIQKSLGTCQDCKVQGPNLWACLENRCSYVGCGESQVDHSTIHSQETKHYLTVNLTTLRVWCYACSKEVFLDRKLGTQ

USP20 DUSP2 domain [1] = molecular target: T3, USP20 DUSP2 domain (Homo sapiens, UniProt Q9Y2K6); assay: FP-monitored affinity measurements, USP20 DUSP2; format: binding; settings: USP20_DUSP2; FP displacement by unlabelled peptide; read-out: KD
T3 construct: USP20_DUSP2; Q9Y2K6; DUSP2; 776; 894; 6xHis-GST (N, cleaved yes); made in house; host or cells: Escherichia coli BL21-Gold (DE3)
T3 sequence (Q9Y2K6 with tags, fused parts or gaps): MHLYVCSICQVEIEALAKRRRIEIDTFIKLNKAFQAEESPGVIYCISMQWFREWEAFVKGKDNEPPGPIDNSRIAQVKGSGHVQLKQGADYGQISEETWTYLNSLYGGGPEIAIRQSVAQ
Protocol: (§1) Proteins were expressed in Escherichia coli (E.coli) BL21-Gold (DE3) bacteria. The cDNAs encoding N-terminal 6-histidine-glutathione S-transferase tagged (6xHis-GST), 6xHis-tagged or GST-tagged protein domains in pETM33, pETM11, pGEX6P1 expression vectors respectively, were obtained from Genescript or kindly provided by MRC-PPU (Suppl. Data 1) The bacteria were transformed with the plasmid and grew at 37 °C in 2YT (5 g/L NaCl, 16 g/L tryptone and 10 g/L yeast extract) supplemented with Kanamycin (30 μg/mL) until reaching an OD600 of 0.7. Protein expression was induced with 0.3 mM isopropyl β-D-1 thiogalactopyranoside (IPTG) for 18 h at 18 °C while shaking. For zinc-finger domains, 50 μM of ZnSO4 was added during expression. The bacterial cultures were pelleted for 15 minutes at 4000 x g at 4 °C and stored at −20 °C until purification. The pellets were resuspended in lysis buffer (1× phosphate-buffered saline (PBS), 0.5 % Triton-X, 5 mM MgCl2, 10 μg/mL lysozyme, cOmplete^TM EDTA-free protease inhibitor cocktail (Roche), 10 μg/mL DNAseI) and incubated for 1 h shaking at 4 °C. […] The supernatant was incubated with glutathione (GSH) Sepharose (Cytiva) or Ni2+ Sepharose (Cytiva) for 1 h at 4 °C while shaking. The beads with the bound protein were washed with 1x PBS and eluted with 10 mM reduced glutathione in 50 mM Tris pH 8.0. For fluorescence polarization experiments, the proteins were not eluted from the beads, and the 6xHis-GST tag was cleaved overnight on GSH Sepharose beads at 4 °C while shaking with PreScission Protease in cleavage buffer (50 mM Tris pH 7.5, 150 mM NaCl, 1 mM DTT). The sample containing the cleaved domain was separated from the tag and protease and buffer-exchanged to 50 mM sodium phosphate buffer pH 7.4 with 1 mM DTT using a PD-10 desalting column (Cytiva). The purity and size of the proteins were analyzed by SDS-PAGE electrophoresis.
(§2) The measurements were performed at room temperature in a non-binding black half area 96-well plate (Corning) with a total volume of 50 μL per well. Peptides were obtained from GeneCust (France) with >95% purity. FITC-labeled peptides (N-terminally FITC-labeled without spacer and C-terminally amidated) were dissolved in dimethyl sulfoxide (DMSO), and unlabeled peptides (N-terminally acetylated and C-terminally amidated) were dissolved in 50 mM phosphate buffer pH 7.4. Saturation measurements were performed using a serial dilution of the protein domains in phosphate buffer (25 μL) and the addition of 10 nM FITC-labeled peptide (in phosphate buffer supplemented with 2 mM DTT) (25 μL). […] All measurements were performed in three technical replicates. The data were analyzed using GraphPad Prism version 9.2.0 for MacOS (GraphPad Software, San Diego, California USA, www.graphpad.com). The saturation curves were fitted to the quadratic equation, and the displacement curves were fitted to a sigmoidal dose-response equation as described previously.

USP33 DUSP2 domain [2] = molecular target: T4, USP33 DUSP2 domain (Homo sapiens, UniProt Q8TEY7); assay: FP-monitored affinity measurements, USP33 DUSP2; format: binding
T4 construct: USP33_DUSP2; Q8TEY7; DUSP2; 806; 921; 6xHis-GST (N, cleaved yes); made in house; host or cells: Escherichia coli BL21-Gold (DE3)
T4 sequence (Q8TEY7 with tags, fused parts or gaps): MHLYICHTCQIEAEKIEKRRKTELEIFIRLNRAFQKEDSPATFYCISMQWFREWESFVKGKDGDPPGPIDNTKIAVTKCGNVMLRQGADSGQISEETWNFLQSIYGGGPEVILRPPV
Protocol: as §1, §2

USP20 DUSP2 domain [3] = molecular target: T3, USP20 DUSP2 domain; assay: Peptide SPOT array, USP20 DUSP2; format: binding; settings: for Average: peptide SPOT array intensity minus background, mean of 2 replicas; for Average / Normalize to peptide with higher intensity %: sheet S5A; for Normalize to higher intensity (%) / Normalize to peptide with higher intensity %: peptide SPOT array; for Normalize to higher intensity (%): USP20 DUSP2, average normalised to the highest intensity (ARNTL2 = 100); for Normalize to peptide with higher intensity %: average normalized to the peptide with highest intensity (ARNTL2 = 100);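 for all read-outs here: GST-tagged domain probed overnight at 4 °C on peptides made on cellulose membranes, bound protein detected via HRP-coupled anti-GST antibody, spot intensity from image analysis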
Protocol: (§3) Peptides were synthesized on cellulose membranes with standard Fluoroenylmethylox-ycarbonyl (Fmoc) chemistry using a Multipep automated synthesizer at INTAVIS (Tübingen, Germany) or ordered from JPT (PepSpots). The membranes were activated with methanol for 5 min and washed three times for 5 min with TBST (50 mM Tris, 137 mM NaCl, 2.7 mM KCl, pH 8.0, 0.05% Tween-20). The membranes were incubated with blocking buffer (5% skim milk powder in TBST) for 2 h at room temperature while shaking. The membranes were incubated with the GST-tagged protein diluted at the desired concentration in blocking buffer and incubated overnight at 4 °C while shaking. The membrane was rinsed 3 times with TBST and incubated with HRP-conjugated anti-GST antibody (Cytiva, RPN1236; 1:3000 dilution) in blocking buffer for 1 h at 4 °C while shaking. […] The images were analyzed in Fiji (ImageJ2 version 2.9.0).

USP33 DUSP2 domain [4] = molecular target: T4, USP33 DUSP2 domain; assay: Peptide SPOT array, USP33 DUSP2; format: binding; settings: average normalised to the highest intensity (CCDC88B = 100)
Protocol: as §3

[5] = USP33_DUSP2, FP displacement by unlabelled peptide, read-out: KD

Kd (USP20 zf-UBP domain): 37.1 µM
Kd (USP33 zf-UBP domain): 14.1 µM
Substance: AQDSPIDFHLQSWMNN [CEP192]

Kd (USP20 zf-UBP domain): ~81.6 µM
Substance: YAQSKTQLEVRPV [ROBO1]

The next lines start with the substance.

Substance: VWA8
log2_FC (FLAG-USP33; FLAG-USP33-ΔDUSP2 vs EV, comparison bh_2 Sample_Limma_ImpMedInt_USP33_DUSP2_domain/EV): 2.1493
log2_FC (FLAG-USP33; FLAG-USP33-ΔUBP vs EV, comparison bh_2 Sample_Limma_ImpMedInt_USP33_UBP_domain/EV): 2.322

Substance: Ac-SDDDLAWNIAPQGLQ-NH2 [GPR137B348-362]
Kd (USP20 DUSP2 domain [1]): 10.2 µM
Kd (USP33 DUSP2 domain [2]; [5]): ~228 µM
Kd (USP33 DUSP2 domain [2]; competitive FP: unlabeled peptide (N-acetylated, C-amidated) against protein with 10 nM FITC-labeled peptide, 50 mM phosphate pH 7.4, room temperature, technical triplicate, read-out: KD, USP33 DUSP2): > 200 µM
Average (USP20 DUSP2 domain [3]): 1.607
Normalize to higher intensity (%) (USP20 DUSP2 domain [3]): 0.8997%
Normalize to peptide with higher intensity % (USP20 DUSP2 domain [3]): 0.8997%
Normalize to higher intensity (%) (USP33 DUSP2 domain [4]): -9.797%

Substance: Ac-PYIPMDDDFQARSFDQLS-NH2 [HIF1A_L574A]
Kd (USP20 DUSP2 domain [1]): 89 µM
Kd (USP33 DUSP2 domain [2]; [5]): ~227 µM

Substance: Ac-PYIPMDDKFQLRSFDQLS-NH2 [HIF1A_D571K]
Kd (USP20 DUSP2 domain [1]): 85 µM
Kd (USP33 DUSP2 domain [2]; [5]): ~145 µM

Substance: IPMDDDFQLRSFDQLS [HIF1A]
Kd (USP20 DUSP2 domain [1]): 18.7 µM
Kd (USP33 DUSP2 domain [2]; [5]): 1.5 µM
Average (USP20 DUSP2 domain [3]): 35.4167
Normalize to higher intensity (%) (USP20 DUSP2 domain [3]): 19.83%
Normalize to peptide with higher intensity % (USP20 DUSP2 domain [3]): 19.8322%
Normalize to higher intensity (%) (USP33 DUSP2 domain [4]): 69.9644%

— paper PMC13376213, “Systematic discovery of motif-based interactions of the auxiliary domains of USP family deubiquitinases” (Nature Communications, 2026)
